In paper PMC10541411 (Nature Communications, 2023):

What was measured:
[1] = molecular target: T1, 53BP1^TT (tandem Tudor domain of 53BP1, residues 1481–1603) (Homo sapiens, UniProt Q12888); assay: Isothermal titration calorimetry (ITC) of small molecules with 53BP1TT; assay type: binding; conditions: 25 °C, 50 mM Tris-HCl pH 7.5, 50 mM NaCl, one-site model; read-out: Kd (apparent, ITC)
T1 construct: The tandem Tudor domain of 53BP1 (53BP1^TT, residues 1481–1603) was purified as previously described; made in house; host or cells: E. coli (only for the SAXS sample)
T1 sequence (Q12888 1481-1603): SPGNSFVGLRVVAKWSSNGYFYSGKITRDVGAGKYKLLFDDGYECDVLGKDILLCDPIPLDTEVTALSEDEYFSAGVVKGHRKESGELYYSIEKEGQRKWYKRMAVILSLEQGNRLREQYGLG
Experimental: The ITC measurements were performed at 25 °C using a MicroCal iTC200 calorimeter. 53BP1^TT and the small molecules (UNC2991, UNC3351, UNC3474) were in 50 mM Tris-HCl, pH 7.5, 50 mM NaCl. In a typical run, 53BP1^TT was in the reaction cell at a concentration of 150 to 160 μM while the small molecule, in the titration syringe at a concentration of 0.8–2 mM, was delivered as 2 μL injections every 3 min. The titrations were paired with control experiments for heat of dilution. The titration of 53BP1^TT with UNC1118 was performed using a MicroCal VP-ITC calorimeter. ITC data were fitted to a one-site model using a Levenberg-Marquardt non-linear regression algorithm programmed in the Origin 7.0 software.
Supplementary Figure 1 | Interaction of 53BP1TT with small molecules probed using isothermal titration calorimetry (ITC) and small-angle X-ray scattering (SAXS). a, ITC of the interaction of UNC2991, UNC3351 and UNC3474 with 53BP1TT. Raw titration data and integrated heat measurements are shown. Indicated apparent Kds with associated standard deviations were determined by nonlinear least-squares analysis.
1.33 and 2 mg/mL with an exposure time of 0.5 s, without and with 10-fold molar excess of UNC1118 or UNC3474. The error bars in the scattering curves were generated using PRIMUS in the data analysis software ATSAS 2.4.2 and represent mean ± standard deviation calculated from signal intensity scaling and merging for the three different 53BP1TT concentrations. The Guinier plots, dimensionless Kratky plots and pair distance distribution functions derived from the SAXS data are shown. Also shown are the crystal structures of 53BP1TT and 53BP1TT-UNC3474 overlaid to the corresponding SAXS-based ab initio molecular envelopes generated using GASBOR 2.3i. c, Interaction of UNC1118 with 53BP1TT characterized using ITC (left) and NMR spectroscopy (right).
For the ITC, raw titration data and integrated heat measurements are shown. The indicated Kd with associated standard deviation was determined by nonlinear least-squares analysis.
(1 picture or pasted object on this page, not shown here)

53BP1^TT [2] = molecular target: T2, 53BP1^TT (Homo sapiens, UniProt Q12888); assay: NMR 15N relaxation measurements (R1, R2, NOE); conditions: 1 mM 15N-labeled 53BP1TT, saturating amounts of small molecule
T2 construct: The tandem Tudor domain of 53BP1 (53BP1^TT, residues 1481–1603) was purified as previously described; made in house; host or cells: E. coli (only for the SAXS sample)
T2 sequence (Q12888 1481-1603): as above
Experimental: The NMR relaxation measurements were carried out with 1 mM ^15N-labeled 53BP1^TT, 53BP1^TT-PN, and 53BP1^TT in the presence of saturating amounts of UNC3474 and UNC1118 in 25 mM sodium phosphate, pH 7.0, 100 mM NaCl, 1.5 mM NaN3, 0.3 mM DSS, 90% H2O/10% D2O, using standard experiments[58],[59]. The longitudinal and transverse ^15N relaxation rates R1 and R2 were determined using 12 and 14 relaxation delay times of 0.1–2 s and 4–120 ms, respectively. The first data point of each set of measurements was repeated for error assessment. The ^15N-{^1H} nuclear Overhauser ratios were obtained from a reference experiment without proton irradiation and a steady-state experiment with proton irradiation for 3 s.

53BP1^TT [3] = molecular target: T2, 53BP1^TT; assay: Sedimentation velocity analytical ultracentrifugation (AUC); conditions: 53BP1TT 20 μM, UNC3474 10-200 μM
Experimental: The AUC experiments were performed at 20 °C in 20 mM sodium phosphate, pH 7.5, with 50 mM NaCl. 53BP1^TT was at a concentration of 20 μM. Measurements were recorded on an Optima analytical ultracentrifuge (Beckman Coulter) with an An-50 Ti analytical 8-place rotor using absorbance detection at 280 nm. Sample-filled AUC cells assembled with 12-mm charcoal-filled Epon centerpieces and quartz windows were subjected to 3 h of equilibration at 20 °C under vacuum prior to initiating the experiments at 50,000 rpm (corresponding to 182,000 × g at the cell center and 201,600 × g at the cell bottom) with continuous data acquisition for 20 h (200 scans) at 20 °C. The AUC data were analyzed with the c(s) model in SEDFIT[66] using a partial specific volume of 0.7335 mL/g.

Kd [1]: 1000 ± 300 nM
Compound: CC(C)c1cccc(C(=O)NCCCNC(C)(C)C)c1 [UNC3474]
effect on 15N relaxation rates of 53BP1TT (53BP1^TT [2]): increase in R2 relaxation rates
change in sedimentation coefficient of 53BP1TT (53BP1^TT [3]): consistent with the dimerization of 53BP1^TT
